Measured values from ChEMBL document CHEMBL5143603, “Discovery of novel 2,8-diazaspiro[4.5]decan-1-one derivatives as potent RIPK1 kinase inhibitors” (Bioorg Med Chem, 2022).

Experiments:
[1] = target: T1, Receptor-interacting serine/threonine-protein kinase 1 (Homo sapiens, UniProt Q13546); assay: Inhibition of human RIPK1 incubated for 40 min in presence of ATP by ADP-Glo luminescence kinase assay
T1 sequence (Q13546 whole entry): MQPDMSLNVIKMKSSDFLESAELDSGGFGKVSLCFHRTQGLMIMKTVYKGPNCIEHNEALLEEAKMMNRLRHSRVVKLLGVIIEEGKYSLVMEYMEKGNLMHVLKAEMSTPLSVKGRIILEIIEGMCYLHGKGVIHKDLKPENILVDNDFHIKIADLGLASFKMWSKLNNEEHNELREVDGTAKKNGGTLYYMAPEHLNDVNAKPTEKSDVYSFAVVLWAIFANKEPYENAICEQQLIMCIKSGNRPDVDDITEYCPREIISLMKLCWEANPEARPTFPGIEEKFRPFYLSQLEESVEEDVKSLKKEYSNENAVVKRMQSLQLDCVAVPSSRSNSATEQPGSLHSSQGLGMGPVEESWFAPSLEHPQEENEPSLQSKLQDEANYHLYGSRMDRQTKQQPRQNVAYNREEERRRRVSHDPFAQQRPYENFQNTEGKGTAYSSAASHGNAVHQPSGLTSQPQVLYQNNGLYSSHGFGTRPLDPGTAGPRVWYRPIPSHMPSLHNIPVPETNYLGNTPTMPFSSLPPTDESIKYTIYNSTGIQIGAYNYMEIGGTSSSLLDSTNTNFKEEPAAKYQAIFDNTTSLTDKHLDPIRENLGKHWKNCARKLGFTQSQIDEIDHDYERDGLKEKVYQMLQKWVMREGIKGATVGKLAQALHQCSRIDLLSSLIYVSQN

U-937 [2] = assay: Anti-necroptotic activity in human U-937 cells assessed as inhibition of LPS/Z-VAD-fmk (LSZ)-induced necroptosis preincubated with PMA followed by compound addition and measured after 9 hrs by CCK8 assay; format: functional, cell-based; conditions: DDE = dose-dependent effect
U-937 [3] = assay: Anti-necroptotic activity in human U-937 cells assessed as decrease in phosphorylation of MLKL level preincubated with PMA and LPS followed by compound addition and measured after 9 hrs by western blot analysis; format: functional, cell-based; conditions: DDE = dose-dependent effect

Row | IC50 [1] [nM] | Structure (SMILES) | Activity (U-937 [2]) | Activity (U-937 [3])
1 | 298 | CCC(C)(C)C(=O)N(O)Cc1ccccc1 | – | –
2 | – | Cn1ccc2ccc(C(=O)N3CCC4(CC3)CCN(Cc3cc(F)ccc3F)C4=O)cc21 | Dde | Dde
3 | 1010 | O=C(c1ccccc1)N1CCC2(CC1)CN(Cc1ccccc1)C2=O | – | –
4 | 1140 | CN1C(=O)C(Cc2c[nH]c3ccccc23)NC1=S (stereo not given) [NECROSTATIN] | – | –
